# Reference: patent publication US11299509B2, “Trigger-activatable sugar conjugates for cancer-selective labeling and targeting” (The Board of Trustees of the University of Illinois, priority 2017, dated 2022)
# Tests used:
# Jurkat (lymphoma) cells = assay: Metabolic azido-sugar cell labeling, DBCO-Cy5 detection by flow cytometry; type: cell-based; conditions: 50 μM sugar, 72 h, DBCO-Cy5 25 μM, no UV
# Procedure: (§1) These cells were incubated with Ac4GalNAz (AAG), Ac3GalNAzEt (AAG-Et), and PBS respectively for three days.
# (§2) It is known that galactosamine can be preferentially taken up by hepatocytes (a type of liver cells) due to the presence of cell receptors such as asialoglycoprotein receptor (ASGPR). Tetraacetyl-N-azidoacetylgalactosamine (AAG) is relative hydrophobic and can passively diffuse into cells through hydrophobic interactions with the lipid cell membrane while N-azidoacetylgalactosamine (AG) is too hydrophilic to penetrate the lipid barrier by passive diffusion. Therefore, AG can only be taken up by cells through receptor-mediated endocytosis.
# (§3) Cells were seeded onto coverslips in a 6-well plate at a cell density of 40 k/well. AAG or AAG derivatives were added and incubated with cells for 72 h. […] The opti-MEM was then removed and cells were washed with PBS three times. Cells were lifted by incubating with trypsin solution (100 μL) at 37° C. for 5 min and transferred to test tubes with addition of 4% PFA solution (0.4 mL). Ten thousand cells per sample were analyzed by flow cytometry and data analysis was performed on the FCS Express software.
# (§4) AAG-Nb with a final concentration of 50 μM was added. UV light (10 mW/m^2) was applied for 15 min at the start of incubation, and the cells were further incubated for 72 h. Cells without UV irradiation were continuously incubated for 72 h. Cell samples for flow cytometry were then prepared following the above-mentioned procedures.
# [1] = tested on: HepG2 (liver cancer) cells; assay: as above; type: cell-based; conditions: for Cell labeling (Cy5 fluorescence on the cell surface): 50 μM sugar, 72 h, DBCO-Cy5 25 μM, no UV
# Procedure: as §1, §2, §3, §4
# [2] = tested on: MDA-MB-231 (triple negative breast cancer) cells; assay: as above; type: cell-based; conditions: 50 μM sugar, 72 h, DBCO-Cy5 25 μM, no UV
# Procedure: as §1, §2, §3, §4
# HepG2 liver cancer cells [3] = assay: Confocal imaging of azido-sugar labeled cells; type: cell-based; conditions: DBCO-Cy5 stain
# Procedure: Cells were seeded onto coverslips in a 6-well plate at a cell density of 40 k/well. Ac4GalNAz (AAG) or AAG derivatives were added with a final concentration of 50 μM and the cells were incubated at 37° C. for 72 h. The medium was removed and washed with PBS for three times. DBCO-Cy5 (25 μM) in Opti-MEM was then added and the cells were incubated for another 1 h. Then the medium was removed, and the cells were washed with PBS three times. 4% paraformaldehyde (PFA) solution was added to fix the cells for 10 min, followed by staining of cell nucleus with Hoechst (1 μg/mL) and staining of cell membrane with cell mask orange (5 ug/mL) for 10 min. The coverslips were mounted on microscope slides with the addition of ProLong Gold antifade reagent, and the prepared sample was stored in dark for imaging.
# HepG2 liver cancer cells [4] = assay: MTT cell viability assay of azido-sugars; type: cell-based; conditions: up to 200 μM, 72 h
# Procedure: HepG2 liver cancer cells were seeded onto coverslips in a 6-well plate at a cell density of 40 k/well. Different azido-sugars (AG, AAG, and AAM) at different concentrations (50 μM-200 μM) were added, and the cells were incubated at 37° C. for 72 h. The medium was removed. Then 20 μL 3-(4,5-dimethyl-2-thiazolyl)-2,5-diphenyl-2H-tetrazolium bromide (MTT) (5 mg/mL in PBS) was added and cultured at 37° C. for 4 h. MTT is a substrate that provides a colorimetric signal in response to viable mitochondria. Following solubilization by 100 μl DMSO, absorbance at 570 nm was measured using a plate reader.
# HepG2 liver cancer cells [5] = assay: SDS-PAGE analysis of cells treated with azido-sugars; type: cell-based; conditions: 72 h, DBCO-Cy5 25 μM
# Procedure: HepG2 liver cancer cells were seeded onto 6-well plate at a cell density of 40 k/well. Different azido-sugars at different concentrations were added and incubated with cells for 72 h. After removal of medium and multiple washing steps, DBCO-Cy5 (25 μM) in opti-MEM was added and incubated with cells at 37° C. for 1 h. The opti-MEM was then removed and cells were washed with PBS three times. The cells were homogenized in 150 μL of lysis buffer (RIPA) containing protease inhibitor. The lysate was incubated at 4° C. for 30 min, followed by centrifugation at 5000 rcf for 5 min to remove insoluble debris. The total concentration of soluble protein in each sample was determined by bicinchoninic acid (BCA) assay and adjusted to the same concentration. 4× loading buffer was added to each sample and 15 μL samples containing 20 μg protein were loaded onto 10% SDS-PAGE gel after heating at 95° C. The gel was run for 60 min under 150 V. Cy-5 fluorescence was imaged by Imagequant LAS 4010 Luminescent image analyzer and the gel was further stained by coomassie blue
# CD-1 mice = assay: Maximum tolerable dose (MTD) after i.v. injection; conditions: for Maximum tolerable dose (MTD): single i.v. injection, <20% body weight loss
# Procedure: (§5) The maximum tolerable dose (MTD) of the two conjugates were also evaluated in CD-1 mice (FIG. 9). […] The sulfo-DBCO-TEG-VC-DOX was injected using PBS with only one time administration.
# (§6) The maximum tolerable dose (MTD) of the two conjugates were also evaluated in mice (FIG. 15).
# (§7) A model DBCO-paclitaxel conjugate, PTX-TEG-DBCO was prepared through well-established reactions.
# [6] = Maximum tolerable dose (MTD) after i.v. injection; conditions: CD-1, mouse, in vivo
# Procedure: as §5, §6, §7
# physchem = assay: physchem
# Procedure: Two DBCO-doxorubicin conjugates were synthesized with a cathepsin-B responsive peptide linker (VC). A tetraethyleneglycol unit was incorporated to improve the solubility of the conjugates (FIG. 7). A sulfonic acid-containing conjugate, sulfo-DBCO-TEG-VC-DOX was also prepared to further improve the solubility of the conjugate. […] The solubility of the two conjugates were first tested.
# DBCO-DM1 conjugates (FIG. 11) were then synthesized through well-established chemistries. A polyethylene glycol 5000 was used in the design to serve the following purpose: 1. […] To increase the hydrophilicity of the drug conjugate such that its passive uptake in non-azide labeled cells can be reduced; 3. To increase the blood circulation half-time (pharmacokinetics) of the molecule in vivo.
# [7] = tested on: MDA-MB-231 breast cancer cell; assay: MTT assay to evaluate in vitro cytotoxicity; type: cell-based; conditions: 72 hours
# Procedure: Standard MTT protocol was followed to evaluate the cytotoxicity of DBCO-drug conjugate. Briefly, MDA-MB-231 cells were seeded in 96-well plate at 3000 cells/well in 100 μL DMEM medium and were allowed to attach overnight. 10 μL DBCO-drug conjugate solution was added into the well to the designated final concentration and incubated at 37° C. for 72 hours. PBS was taken as 100% control. 20 μL 5 mg/mL MTT solution was added to the medium and incubated at 37° C. for 3 hours.
# [8] = tested on: a variety of breast cancer cell lines; conditions: down to; cited from earlier work
structure (smiles),measurement,setting,value
"CC(=O)OC[C@H]1OC(OC(C)=O)[C@H](NC(=O)CN=[N+]=[N-])[C@@H](OC(C)=O)[C@H]1OC(C)=O (stereo partly shown) [AAG, Tetraacetyl-N-azidoacetylgalactosamine]",Cell labeling (Cy5 fluorescence on the cell surface),Jurkat (lymphoma) cells,efficiently labeled
same,Cell labeling (Cy5 fluorescence on the cell surface),[1],efficiently labeled
same,Cell labeling (Cy5 fluorescence on the cell surface),[2],efficiently labeled
"CC(=O)OC[C@H]1OC(OC(C)=O)[C@@H](NC(=O)CN=[N+]=[N-])[C@@H](OC(C)=O)[C@@H]1OC(C)=O (stereo partly shown) [AAM, tetraacetyl-N-azidoacetylmannosamine]",Cell labeling (Cy5 fluorescence on the cell surface),Jurkat (lymphoma) cells,efficiently labeled
same,Cell labeling (Cy5 fluorescence on the cell surface),[1],efficiently labeled
same,Cell labeling (Cy5 fluorescence on the cell surface),[2],efficiently labeled
"[N-]=[N+]=NCC(=O)N[C@H]1C(O)O[C@H](CO)[C@H](O)[C@@H]1O (stereo partly shown) [AG, N-azidoacetylgalactosamine]",Localization of labeling (confocal microscopy),HepG2 liver cancer cells [3],mainly localized on cell membrane
same,Toxicity to cells (MTT),HepG2 liver cancer cells [4],not toxic
same,"Azide groups on cell surface membrane protein (SDS-PAGE, Cy5 fluorescence)",HepG2 liver cancer cells [5],did containing azide groups
same,Cell labeling (Cy5 fluorescence on the cell surface),Jurkat (lymphoma) cells,only HepG2 cells were positively labeled
same,Cell labeling (Cy5 fluorescence on the cell surface),[1],positively labeled
same,Concentration dependence of labeling,[1]; concentration increased from 25 μM to 200 μM,increased significantly
same,Cell labeling (Cy5 fluorescence on the cell surface),[2],only HepG2 cells were positively labeled
COc1cccc2c1C(=O)c1c(O)c3c(c(O)c1C2=O)C[C@@](O)(C(=O)CO)C[C@@H]3O[C@H]1C[C@H](NC(=O)OCc2ccc(NC(=O)C(CCCNC(N)=O)NC(=O)[C@@H](NC(=O)CCOCCOCCOCCOCCNC(=O)CCC(=O)N3Cc4ccccc4C#Cc4ccccc43)C(C)C)cc2)[C@H](O)[C@H](C)O1 (stereo partly shown) [DBCO-TEG-VC-DOX],Body weight change,"CD-1 mice; mouse, in vivo",No significant body weight loss
same,MTD,[6],> 204 mg/kg
same,solubility,physchem; aqueous buffer,< 50 µM
same,solubility,physchem; aqueous with cosolvent or surfactant or cyclodextrin,~3500 µg/mL
"COc1cc2cc(c1Cl)N(C)C(=O)C[C@H](OC(=O)[C@H](C)N(C)C(=O)CCS)[C@]1(C)O[C@H]1[C@H](C)[C@@H]1C[C@@](O)(NC(=O)O1)[C@H](OC)/C=C/C=C(\C)C2 [DM1, Mertansine]",IC50,[7],~0.03 nM
same,in vitro IC50 value,[8],tens
CC(=O)O[C@H]1C(=O)[C@@]2(C)C([C@H](OC(=O)c3ccccc3)[C@]3(O)C[C@H](OC(=O)[C@H](OC(=O)COCCOCCOCCOCCNC(=O)CCC(=O)N4Cc5ccccc5C#Cc5ccccc54)[C@@H](NC(=O)c4ccccc4)c4ccccc4)C(C)=C1C3(C)C)[C@]1(OC(C)=O)CO[C@@H]1C[C@@H]2O (stereo partly shown) [PTX-TEG-DBCO],MTD,[6]; iv,> 200 mg/kg
"N.N.[Cl][Pt][Cl] [cisplatin, reference compound]",Maximum tolerable dose (MTD),CD-1 mice; CD-1 mice,about 5 mg/kg
same,Maximum tolerable dose (MTD),"CD-1 mice; CD-1 mice, listed as cis-platin",5 mg/kg
COc1cccc2c1C(=O)c1c(O)c3c(c(O)c1C2=O)C[C@@](O)(C(=O)CO)C[C@@H]3O[C@H]1C[C@H](NC(=O)OCc2ccc(NC(=O)C(CCCNC(N)=O)NC(=O)[C@@H](NC(=O)CCC(=O)NCCOCCOCCOCCOCCC(=O)NCC(C(=O)NCCC(=O)N3Cc4ccccc4C#Cc4ccccc43)S(=O)(=O)O)C(C)C)cc2)[C@H](O)[C@H](C)O1 (stereo partly shown) [sulfo-DBCO-TEG-VC-DOX],Body weight change,"CD-1 mice; CD-1 mice, one time administration in PBS, up to highest dose used",No body weight decrease
same,MTD,[6]; iv,> 120 mg/kg
same,solubility,physchem; aqueous buffer,8000 to 10000 µg/mL
